The numbers were not newly measured in publication PMC3160472 (Nature protocols, 2011), which cites them from elsewhere.

Where two headings read alike, the source gives them in different places.

Data set [1] deals with NT (N-terminal domain of IP3 receptor, residues 1-604 of IP3R1). The settings on record: for Kd: read-out: KD, NT, 3H-IP3, Ca2+-free CLM, 4 °C, equilibrium competition binding with 3H-IP3, mean ± S.E.M., n = 3.
For data set [2] the target is unchanged. The settings on record: read-out: KD, NT, FP, Ca2+-free CLM, 4 °C, mean ± S.E.M., n = 3.
The target in data set [3] is IBC (IP3-binding core of IP3 receptor, residues 224-604 of IP3R1). The settings on record: read-out: KD, IBC, FP, Ca2+-free CLM, 4 °C, mean ± S.E.M., n = 3.
Data set [4] shares this target. The settings on record: read-out: KD, IBC, 3H-IP3; Ca2+-free CLM, 4 °C, equilibrium competition binding with 3H-IP3, mean ± S.E.M., n = 3.
Data set [5] concerns the target NT (N-terminal domain of IP3 receptor, residues 1-604 of IP3R1). The settings on record: read-out: KD, saturation radioligand binding; 'purified' NT, 3H-IP3, in TEM (pH 8.3).

As to `Nc1ncnc2c1ncn2[C@@H]1O[C@H](CO)[C@@H](O[C@H]2O[C@H](CO)[C@@H](OP(=O)(O)O)[C@H](OP(=O)(O)O)[C@H]2O)[C@H]1OP(=O)(O)O` [Adenophostin A], the Kd was 6.2 ± 1.6 nM in data set [1], 8.6 ± 0.2 nM in data set [2], 0.9 ± 0.1 nM in data set [3] and 0.7 ± 0.1 nM in data set [4].
As to “D-2-O-(2-(3-(5-fluoresceinyl)thioureido)ethyl)-myo-inositol 1,4,5-trisphosphate [FITC-IP3]”, the Kd in data set [1] is 11.8 ± 0.2 nM; in data set [2], 12.5 ± 0.6 nM; in data set [3], 3 ± 0.1 nM; in data set [4] it was 2 ± 0.2 nM.
Take `O=P([O-])([O-])O[C@@H]1[C@H](O)[C@H](O)[C@@H](OP(=O)([O-])[O-])[C@H](OP(=O)([O-])[O-])[C@H]1O.[K+].[K+].[K+].[K+].[K+].[K+]` [IP3, D-myo-inositol-1,4,5-trisphosphate, hexapotassium salt]: the Kd in data set [5] was 2.2 ± 0.5 nM; in data set [1], 65 ± 8 nM; in data set [2] it was 95 ± 7 nM; in data set [3] it was 9.2 ± 0.8 nM; in data set [4], 8.7 ± 1.8 nM. The “KD for the NT in TEM relative to Ca2+-free CLM” value in data set [1] (TEM (pH 8.3) versus Ca2+-free CLM (pH 7.0), printed as higher in TEM) was ~ 40 fold.
